Reference: US7102009B2, “Substituted amine derivatives and methods of use” (Amgen Inc., priority 2001, dated 2006)

Tested on: Human Umbilical Vein Endothelial cells (VEGF-stimulated HUVEC proliferation)
Assay: HUVEC Proliferation Assay (VEGF-stimulated)
Format: cell-based
Details: VEGF 50 ng/mL, 72 h incubation, CyQuant readout, read-out: inhibited VEGF-stimulated HUVEC proliferation at a level below (IC50)
Experimental: Human Umbilical Vein Endothelial cells are purchased from Clonetics, Inc., as cryopreserved cells harvested from a pool of donors. These cells, at passage 1, are thawed and expanded in EBM-2 complete medium, until passage 2 or 3. The cells are trypsinized, washed in DMEM+10% FBS+antibiotics, and spun at 1000 rpm for 10 min. Prior to centrifugation of the cells, a small amount is collected for a cell count. After centrifugation, the medium is discarded, and the cells are resuspended in the appropriate volume of DMEM+10% FBS+antibiotics to achieve a concentration of 3×10^5 cells/mL. Another cell count is performed to confirm the cell concentration. The cells are diluted to 3×10^4 cells/mL in DMEM+10% FBS+antibiotics, and 100 μL of cells are added to a 96-well plate. The cells are incubated at 37° C. for 22 h.
Prior to the completion of the incubation period, compound dilutions are prepared. Five-point, five-fold serial dilutions are prepared in DMSO, at concentrations 400-fold greater than the final concentrations desired. 2.5 μL of each compound dilution are diluted further in a total of 1 mL DMEM+10% FBS+antibiotics (400× dilution). Medium containing 0.25% DMSO is also prepared for the 0 μM compound sample. At the 22-hour timepoint, the medium is removed from the cells, and 100 μL of each compound dilution is added. The cells are incubated at 37° C. for 2-3 h.
During the compound pre-incubation period, the growth factors are diluted to the appropriate concentrations. Solutions of DMEM+10% FBS+antibiotics, containing either VEGF or bFGF at the following concentrations: 50, 10, 2, 0.4, 0.08, and 0 ng/mL are prepared. For the compound-treated cells, solutions of VEGF at 550 ng/mL or bFGF at 220 ng/mL for 50 ng/mL or 20 ng/mL final concentrations, respectively, are prepared since 10 μL of each will be added to the cells (110 μL final volume). At the appropriate time after adding the compounds, the growth factors are added. VEGF is added to one set of plates, while bFGF is added to another set of plates. For the growth factor control curves, the media on wells B4-G6 of plates 1 and 2 are replaced with media containing VEGF or bFGF at the varying concentrations (50-0 ng/mL). The cells are incubated at 37° C. for an additional 72 h.
At the completion of the 72 h incubation period, the medium is removed, and the cells are washed twice with PBS. After the second wash with PBS, the plates are tapped gently to remove excess PBS, and the cells are placed at −70° C. for at least 30 min. The cells are thawed and analyzed using the CyQuant fluorescent dye (Molecular Probes C-7026), following the manufacturer's recommendations. The plates are read on a Victor/Wallac 1420 workstation at 485 nm/530 nm (excitation/emission). Raw data are collected and analyzed using a 4-parameter fit equation in XLFit. IC50 values are then determined.

| SMILES | IC50 |
| --- | --- |
| COc1ccc(C(C)(C)C)cc1NC(=O)c1cccnc1Nc1ccc2cn[nH]c2c1 [Example 25, N-[5-(tert-Butyl)-2-methoxyphenyl][2-(1H-indazol-6-ylamino)(3-pyridyl)]carboxamide] | < 50 nM |
| CC(C)(C)c1ccc(NC(=O)c2cccnc2Nc2ccc3cn[nH]c3c2)cc1OC[C@@H]1CCCN1 [Example 96, N-[4-tert-Butyl-3-(pyrrolidin-2-ylmethoxy)-phenyl]-2-(1H-indazol-6-ylamino)-nicotinamide] | < 50 nM |
| CN1CCN(c2cc(NC(=O)c3cccnc3Nc3ccc4cn[nH]c4c3)ccc2C(C)(C)C)CC1 [Example 31, N-[4-(tert-Butyl)-3-(4-methylpiperazinyl)phenyl][2-(1H-indazol-6-ylamino)(3-pyridyl)]carboxamide] | < 50 nM |
| CN1CCC[C@H]1COc1cc(NC(=O)c2cccnc2Nc2ccc3cn[nH]c3c2)cc(C(F)(F)F)c1 [Example 104, 2-(1H-Indazol-6-ylamino)-N-[3-(1-methylpyrrolidin-2-ylmethoxy)-5-trifluoromethyl-phenyl]-nicotinamide] | < 50 nM |
| CC(C)(C)c1ccc(NC(=O)c2cccnc2Nc2ccc3cn[nH]c3c2)cc1OCC1CCNCC1 [Example 93, N-[4-tert-Butyl-3-(piperidin-4-ylmethoxy)-phenyl]-2-(1H-indazol-6-ylamino)-nicotinamide] | < 50 nM |
| O=C(Nc1ccc(C(F)(F)C(F)(F)F)c(CN2CCNCC2)c1)c1cccnc1Nc1ccc2cn[nH]c2c1 [Example 111, 2-(1H-Indazol-6-ylamino)-N-(4-pentafluoroethyl-3-piperazin-1-ylmethyl-phenyl)-nicotinamide] | < 50 nM |
| O=C(Nc1ccc(C(F)(F)F)cc1)c1cccnc1Nc1ccc2cn[nH]c2c1 [Example 50, [2-(1H-Indazol-6-ylamino)(3-pyridyl)]-N-[4-(trifluoromethyl)phenyl]carboxamide] | < 50 nM |
| O=C(Nc1ccc(C(OCCN2CCCCC2)(C(F)(F)F)C(F)(F)F)cc1)c1cccnc1Nc1ccc2cn[nH]c2c1 [Example 65, [2-(1H-Indazol-6-ylamino)(3-pyridyl)]-N-{4-[2,2,2-trifluoro-1-(2-piperidylethoxy)-1-(trifluoromethyl)ethyl]phenyl}carboxamide] | < 50 nM |
| CC1(C)COc2cc(NC(=O)c3cccnc3Nc3ccc4cn[nH]c4c3)ccc21 [Example 106, N-(3,3-Dimethyl-2,3-dihydro-benzofuran-6-yl)-2-(1H-indazol-6-ylamino)-nicotinamide] | < 50 nM |
| CN(C)CCCc1cc(NC(=O)c2cccnc2Nc2ccc3cn[nH]c3c2)cc(C(F)(F)F)c1 [Example 51, N-{3-[3-(Dimethylamino)propyl]-5-(trifluoromethyl)phenyl}[2-(1H-indazol-6-ylamino)(3-pyridyl)]carboxamide] | < 50 nM |
| CC1(C)CN(S(C)(=O)=O)c2cc(NC(=O)c3cccnc3Nc3ccc4cn[nH]c4c3)ccc21 [Example 625, N-(3,3-dimethyl-1-(methylsulfonyl)-2,3-dihydro-1H-indol-6-yl)-2-(1H-indazol-6-ylamino)-3-pyridinecarboxamide] | < 50 nM |
| CC(=O)N1CCC[C@@H]1COc1cc(NC(=O)c2cccnc2Nc2ccc3cn[nH]c3c2)cc(C(F)(F)F)c1 [Example 580, N-(3-((((2R)-1-Acetyl-2-pyrrolidinyl)methyl)oxy)-5-(trifluoromethyl)phenyl)-2-(1H-indazol-6-ylamino)-3-pyridinecarboxamide] | < 50 nM |
| CS(=O)(=O)Nc1cc(NC(=O)c2cccnc2Nc2ccc3cn[nH]c3c2)cc(C(F)(F)F)c1 [Example 586, 2-(1H-Indazol-6-ylamino)-N-(3-((methylsulfonyl)amino)-5-(trifluoromethyl)phenyl)-3-pyridinecarboxamide] | < 50 nM |
| O=C(Nc1ccc(C(F)(F)C(F)(F)F)c(OCCN2CCCCC2)c1)c1cccnc1Nc1ccc2cn[nH]c2c1 [Example 81, 2-(1H-Indazol-6-ylamino)-N-[4-pentafluoroethyl-3-(2-piperidin-1-yl-ethoxy)-phenyl]-nicotinamide] | < 50 nM |
| CC(C)(CCN1CCOCC1)c1ccc(NC(=O)c2cccnc2Nc2ccc3cn[nH]c3c2)cc1 [Example 63, N-[4-(1,1-Dimethyl-3-morpholin-4-ylpropyl)phenyl][2-(1H-indazol-6-ylamino)(3-pyridyl)]carboxamide] | < 50 nM |
| CC(C)(C)c1ccc(NC(=O)c2cccnc2Nc2ccc3cn[nH]c3c2)cc1NC(=O)CN1CCCC1 [Example 587, N-(4-(1,1-Dimethylethyl)-3-((1-pyrrolidinylacetyl)amino)phenyl)-2-(1H-indazol-6-ylamino)-3-pyridinecarboxamide] | < 50 nM |
| CC(C)(C)c1ccc(NC(=O)c2cccnc2Nc2cccc3c2CNC3=O)cc1 [Example 600, N-(4-tert-Butyl-phenyl)-2-(1-oxo-2,3-dihydro-1H-isoindol-4-ylamino)-nicotinamide] | < 50 nM |
| CC(C)(C)c1ccc(NC(=O)c2cccnc2Nc2ccc3cn[nH]c3c2)cc1CCCN1CCOCC1 [Example 57, N-[4-(tert-Butyl)-3-(3-morpholin-4-ylpropyl)phenyl][2-(1H-indazol-6-ylamino)(3-pyridyl)]carboxamide] | < 50 nM |
| CC(C)(C)c1ccc(NC(=O)c2ccc(F)nc2Nc2ccc3cn[nH]c3c2)cc1 [Example 66, N-[4-(tert-Butyl)phenyl][6-fluoro-2-(1H-indazol-6-ylamino)(3-pyridyl)]carboxamide] | < 50 nM |
| O=C(Nc1ccc2c(C(F)(F)F)cc(=O)oc2c1)c1cccnc1Nc1ccc2cn[nH]c2c1 [Example 120, 2-(1H-Indazol-6-ylamino)-N-(2-oxo-4-trifluoromethyl-2H-chromen-7-yl)-nicotinamide] | < 50 nM |
| CC(C)(C)c1ccc(NC(=O)c2cccnc2Nc2ccc3cn[nH]c3c2)cc1CCCN1CCCC1 [Example 56, N-[4-(tert-Butyl)-3-(3-pyrrolidinylpropyl)phenyl][2-(1H-indazol-6-ylamino)(3-pyridyl)]carboxamide] | < 50 nM |
| O=C(Nc1cccc(C(F)(F)F)c1)c1cccnc1Nc1ccc2cn[nH]c2c1 [Example 9, [2-(1H-Indazol-6-ylamino)(3-pyridyl)]-N-[3-(trifluoromethyl)phenyl]carboxamide] | < 50 nM |
| CN1CCC[C@@H]1COc1cc(NC(=O)c2cccnc2Nc2ccc3cn[nH]c3c2)cc(C(F)(F)F)c1 [Example 577, 2-(1H-Indazol-6-ylamino)-N-(3-((((2R)-1-methyl-2-pyrrolidinyl)methyl)oxy)-5-(trifluoromethyl)phenyl)-3-pyridinecarboxamide] | < 50 nM |
| O=C(Nc1ccc(Oc2ccccc2)cc1)c1cccnc1Nc1ccc2cn[nH]c2c1 [Example 43, 2-(1H-Indazol-6-ylamino)-N-(4-phenoxy-phenyl)-nicotinamide] | < 50 nM |
| CN1CCC(COc2cc(NC(=O)c3cccnc3Nc3ccc4cn[nH]c4c3)ccc2C(F)(F)C(F)(F)F)CC1 [Example 78, 2-(1H-Indazol-6-ylamino)-N-[3-(1-methyl-piperidin-4-ylmethoxy)-4-pentafluoroethyl-phenyl]-nicotinamide] | < 50 nM |
| CN1CCC(CN2CC(C)(C)c3ccc(NC(=O)c4cccnc4Nc4ccc5cn[nH]c5c4)cc32)CC1 [Example 42, N-[3,3-Dimethyl-1-(1-methyl-piperidin-4-ylmethyl)-2,3-dihydro-1H-indol-6-yl]-2-(1H-indazol-6-ylamino)-nicotinamide] | < 50 nM |
| CN1CCC(C(C)(C)c2ccc(NC(=O)c3cccnc3Nc3cccc4c3CNC4=O)cc2)CC1 [Example 603, N-{4-[1-Methyl-1-(1-methyl-piperidin-4-yl)-ethyl]-phenyl}-2-(1-oxo-2,3-dihydro-1H-isoindol-4-ylamino)-nicotinamide] | < 50 nM |
| CC1(C)CN(CC2CCNCC2)c2cc(NC(=O)c3cccnc3Nc3ccc4cn[nH]c4c3)ccc21 [Example 41, N-[3,3-Dimethyl-1-(4-piperidylmethyl)indolin-6-yl][2-(1H-indazol-6-ylamino)(3-pyridyl)]carboxamide] | < 50 nM |
| CC1(C)CC(=O)Nc2cc(NC(=O)c3cccnc3Nc3ccc4cn[nH]c4c3)ccc21 [Example 575, N-(4,4-Dimethyl-2-oxo-1,2,3,4-tetrahydro-quinolin-7-yl)-2-(1H-indazol-6-ylamino)-nicotinamide] | < 50 nM |
